For test [1], the target named is GST-Bcl-XL (Homo sapiens, UniProt Q07817). As to the kind of experiment: TR-FRET binding assay, GST-Bcl-XL with F-Bak peptide probe. Particulars: TR-FRET Binding Affinity. The gist of the method: (§1)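 Displacement of a fluorescein-labelled Bak peptide from the GST-tagged protein was followed by time-resolved FRET with a terbium anti-GST donor after 3 h incubation at room temperature. Inhibition constants were calculated with Wang's equation.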
In general terms: TR-FRET usually uses a lanthanide donor and a delayed reading to cut background.

The subject of test [2] is FL5.12/Bcl-2 cells. Put plainly: FL5.12/Bcl-2 cell viability assay under IL-3 withdrawal (CellTitre Glo). The format is cell-based, murine. Particulars: Mus musculus, IL-3 withdrawn 48 hrs, then 24 hrs with compound. The text has this:
FL5.12 is an IL-3 dependent prolymphocytic murine cell line that undergoes apoptosis upon IL-3 withdrawal as a result of the upregulation of pro-apoptotic Bcl-2 proteins such as Bim and Puma. Stable overexpression of anti-apoptotic Bcl-2 protein (FL5.12/Bcl-2) protects against apoptosis induced by IL-3 withdrawal by sequestration of Bim and Puma. […] The ability of compounds to kill FL5.12/Bcl-2 cells upon IL-3 withdrawal is a direct measure of the compounds' ability to inhibit anti-apoptotic Bcl-2 protein function.
Wild type FL5.12/Bcl-2 overexpressing stable transfectants were cultured in RPMI-1640 supplemented with 2 mM L-glutamine, 10% FBS, 1 mM sodium pyruvate, 2 mM HEPES, 1% penicillin/streptomycin (Invitrogen), 57 μM β-ME, and 10% WEHI-3B conditioned medium (source of IL-3) and maintained at 37° C. containing 5% CO2. 1×10^6 cells/ml were washed 1×PBS and resuspended in medium not supplemented with 10% WEHI-3B for 48 hrs prior to cytotoxicity assays. Cells were then treated for an additional 24 hrs in the presence of various concentrations of the indicated compounds. Cell viability was assessed by CellTitre Glo assay (Promega Corp.) according to the manufacturer's recommendations.

Test [3] addresses GST-Bcl-2 (Homo sapiens, UniProt P10415). Put plainly: TR-FRET binding assay, GST-Bcl-2 with F-Bak peptide probe. Particulars: for Ki: TR-FRET Binding Affinity; for Binding selectivity ratio (Bcl-XL Ki/Bcl-2 Ki): TR-FRET, Bcl-XL Ki divided by Bcl-2 Ki. The procedure, abridged:
as §1

Where [4] appears, read: GST-Bcl-XL, F-Bak peptide probe.

What is called Ki is a measure of affinity in units of concentration, obtained from inhibition or displacement. Read a high Ki as lower affinity. What is called EC50 is the concentration needed to bring the measured effect to its halfway point.

Sequence of GST-Bcl-2 (P10415 whole entry): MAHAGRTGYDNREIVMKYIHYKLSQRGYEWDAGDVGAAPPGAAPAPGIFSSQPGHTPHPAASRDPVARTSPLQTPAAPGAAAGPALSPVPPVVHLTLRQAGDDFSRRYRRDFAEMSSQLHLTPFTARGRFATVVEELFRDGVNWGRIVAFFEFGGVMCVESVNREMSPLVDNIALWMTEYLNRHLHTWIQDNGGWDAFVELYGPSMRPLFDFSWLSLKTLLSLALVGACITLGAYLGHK
Sequence of GST-Bcl-XL (Q07817 whole entry): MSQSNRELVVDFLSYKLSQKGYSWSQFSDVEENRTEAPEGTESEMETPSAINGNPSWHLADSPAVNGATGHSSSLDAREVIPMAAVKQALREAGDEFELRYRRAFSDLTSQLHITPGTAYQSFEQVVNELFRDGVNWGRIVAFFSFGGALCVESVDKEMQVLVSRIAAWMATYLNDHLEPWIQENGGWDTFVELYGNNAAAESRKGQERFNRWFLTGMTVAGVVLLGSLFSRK

In test [1] (setting [4]), `CC1(C)CCC(CN2CCN(c3ccc(C(=O)NS(=O)(=O)c4ccc(N[C@H]5CC[C@H](N6CCOCC6)CC5)c([N+](=O)[O-])c4)c(Oc4ccc5[nH]ccc5c4)c3)CC2)=C(c2ccc(Cl)cc2)C1` [Example 178, Trans-4-(4-{[2-(4-chlorophenyl)-4,4-dimethylcyclohex-1-en-1-yl]methyl}piperazin-1-yl)-2-(1H-indol-5-yloxy)-N-({4-[(4-morpholin-4-ylcyclohexyl)amino]-3-nitrophenyl}sulfonyl)benzamide] showed a Ki of more than 660 nM. Besides, the EC50 in test [2] turned out to be 18.6 nM.

In test [1] (setting [4]), `COCCNc1ccc(S(=O)(=O)NC(=O)c2ccc(N3CCN(CC4=C(c5ccc(Cl)cc5)CC(C)(C)CC4)CC3)cc2Oc2ccc3[nH]ccc3c2)cc1[N+](=O)[O-]` [Example 179, 4-(4-{[2-(4-chlorophenyl)-4,4-dimethylcyclohex-1-en-1-yl]methyl}piperazin-1-yl)-2-(1H-indol-5-yloxy)-N-({4-[(2-methoxyethyl)amino]-3-nitrophenyl}sulfonyl)benzamide] displayed a Ki of more than 660 nM. Further, the EC50 in test [2] amounted to 23.5 nM.

In the case of `CC1(C)CCC(CN2CCN(c3ccc(C(=O)NS(=O)(=O)c4ccc(NC[C@@H]5CCCOC5)c([N+](=O)[O-])c4)c(Oc4ccc5[nH]ccc5c4)c3)CC2)=C(c2ccc(Cl)cc2)C1` [Example 180, 4-(4-{[2-(4-chlorophenyl)-4,4-dimethylcyclohex-1-en-1-yl]methyl}piperazin-1-yl)-2-(1H-indol-5-yloxy)-N-[(3-nitro-4-{[(3S)-tetrahydro-2H-pyran-3-ylmethyl]amino}phenyl)sulfonyl]benzamide], the Ki in test [1] (setting [4]) is more than 660 nM. Also, in test [2], the EC50 was 20.5 nM.

Consider `CC1(C)CCC(CN2CCN(c3ccc(C(=O)NS(=O)(=O)c4ccc(NC[C@H]5CCCOC5)c([N+](=O)[O-])c4)c(Oc4ccc5[nH]ccc5c4)c3)CC2)=C(c2ccc(Cl)cc2)C1` [Example 181, 4-(4-{[2-(4-chlorophenyl)-4,4-dimethylcyclohex-1-en-1-yl]methyl}piperazin-1-yl)-2-(1H-indol-5-yloxy)-N-[(3-nitro-4-{[(3R)-tetrahydro-2H-pyran-3-ylmethyl]amino}phenyl)sulfonyl]benzamide], for which the Ki in test [1] (setting [4]) was more than 660 nM. Further, the EC50 in test [2] was 33.5 nM.

Turning to `CC1(C)CCC(CN2CCN(c3ccc(C(=O)NS(=O)(=O)c4ccc(NCC5CCCOC5)c([N+](=O)[O-])c4)c(Oc4ccc5[nH]ccc5c4)c3)CC2)=C(c2ccc(Cl)cc2)C1` (stereo not shown) [Example 261, 4-(4-{[2-(4-chlorophenyl)-4,4-dimethylcyclohex-1-en-1-yl]methyl}piperazin-1-yl)-2-(1H-indol-5-yloxy)-N-({3-nitro-4-[(tetrahydro-2H-pyran-3-ylmethyl)amino]phenyl}sulfonyl)benzamide], the Ki in test [1] (setting [4]) is more than 660 nM. Also, the EC50 in test [2] turned out to be 17 nM.

On to `O=C(NS(=O)(=O)c1ccc(NCC2CCOCC2)c([N+](=O)[O-])c1)c1ccc(N2CCN(Cc3ccccc3N3CC4CCC(CC4)C3)CC2)cc1Oc1ccccc1` [Example 474, 4-{4-[2-(3-azabicyclo[3.2.2]non-3-yl)benzyl]piperazin-1-yl}-N-({3-nitro-4-[(tetrahydro-2H-pyran-4-ylmethyl)amino]phenyl}sulfonyl)-2-phenoxybenzamide], for which, in test [2], the EC50 stood at 93.4 nM. The affinity in test [3] corresponds to a Ki of 8.1 nM.

`O=C(NS(=O)(=O)c1ccc(NCC2CCOCC2)c(S(=O)(=O)C(F)(F)F)c1)c1ccc(N2CCN(Cc3ccccc3N3CC4CCC(CC4)C3)CC2)cc1Oc1ccccc1` [Example 475, 4-{4-[2-(3-azabicyclo[3.2.2]non-3-yl)benzyl]piperazin-1-yl}-2-phenoxy-N-({4-[(tetrahydro-2H-pyran-4-ylmethyl)amino]-3-[(trifluoromethyl)sulfonyl]phenyl}sulfonyl)benzamide]: the EC50 in test [2] is 223 nM.

On to `O=C(NS(=O)(=O)c1ccc(NCCCN2CCOCC2)c([N+](=O)[O-])c1)c1ccc(N2CCN(Cc3ccccc3N3CC4CCC(CC4)C3)CC2)cc1Oc1ccccc1` [Example 477, 4-{4-[2-(3-azabicyclo[3.2.2]non-3-yl)benzyl]piperazin-1-yl}-N-({4-[(3-morpholin-4-ylpropyl)amino]-3-nitrophenyl}sulfonyl)-2-phenoxybenzamide], for which the EC50 in test [2] was more than 1670 nM. The molecule further had a Ki in test [3] of 8.5 nM.

Turning to `O=C(NS(=O)(=O)c1ccc(NCC2CCOCC2)c([N+](=O)[O-])c1)c1ccc(N2CCN(Cc3ccccc3C3=C[C@H]4C[C@@H]3C3CCCC34)CC2)cc1Oc1ccccc1` (stereo partly drawn) [Example 478, 4-(4-{2-[(4R,7S)-2,3,3a,4,7,7a-hexahydro-1H-4,7-methanoinden-5-yl]benzyl}piperazin-1-yl)-N-({3-nitro-4-[(tetrahydro-2H-pyran-4-ylmethyl)amino]phenyl}sulfonyl)-2-phenoxybenzamide], the EC50 in test [2] was more than 5000 nM.

`CC1(O)CCC(COc2ncc(S(=O)(=O)NC(=O)c3ccc(N4CCN(CC5=C(c6ccc(Cl)cc6)CCC(F)(F)C5)CC4)cc3Oc3cccc4[nH]ncc34)cc2Cl)CC1` (stereo not drawn) [Example 531, N-({5-chloro-6-[(trans-4-hydroxy-4-methylcyclohexyl)methoxy]pyridin-3-yl}sulfonyl)-4-(4-{[2-(4-chlorophenyl)-5,5-difluorocyclohex-1-en-1-yl]methyl}piperazin-1-yl)-2-(1H-indazol-4-yloxy)benzamide]: in test [1], the affinity corresponds to a Ki of 12.6 nM. Also, in test [3], the Ki was less than 0.01 nM and the “Binding selectivity ratio (Bcl-XL Ki/Bcl-2 Ki)” value (“Binding selectivity ratio” below) is more than 1257.8.

With `CC1(C)CCC(CN2CCN(c3ccc(C(=O)NS(=O)(=O)c4ccc(OCC5CCC(C)(O)CC5)c([N+](=O)[O-])c4)c(Oc4cccc5[nH]ncc45)c3)CC2)=C(c2ccc(Cl)cc2)C1` (stereo not drawn) [Example 532, 4-(4-{[2-(4-chlorophenyl)-4,4-dimethylcyclohex-1-en-1-yl]methyl}piperazin-1-yl)-N-({4-[(cis-4-hydroxy-4-methylcyclohexyl)methoxy]-3-nitrophenyl}sulfonyl)-2-(1H-indazol-4-yloxy)benzamide], in test [1], affinity was put at a Ki of 9.81 nM. In test [3], the Ki was less than 0.01 nM and the “Binding selectivity ratio” value is recorded as more than 981.2.

Regarding `CC1(C)CCC(CN2CCN(c3ccc(C(=O)NS(=O)(=O)c4ccc(OCC5CCC(C)(O)CC5)c([N+](=O)[O-])c4)c(Oc4cccc5[nH]ncc45)c3)CC2)=C(c2ccc(Cl)cc2)C1` (stereo not drawn) [Example 533, 4-(4-{[2-(4-chlorophenyl)-4,4-dimethylcyclohex-1-en-1-yl]methyl}piperazin-1-yl)-N-({4-[(trans-4-hydroxy-4-methylcyclohexyl)methoxy]-3-nitrophenyl}sulfonyl)-2-(H-indazol-4-yloxy)benzamide], affinity in test [1] was put at a Ki of 10.4 nM. Moreover, in test [3], the Ki was less than 0.01 nM and the “Binding selectivity ratio” value is more than 1044.3.

`CC1(C)CCC(CN2CCN(c3ccc(C(=O)NS(=O)(=O)c4ccc(OCC5(F)CCN(C6COC6)CC5)c(C#N)c4)c(Oc4cccc5[nH]ncc45)c3)CC2)=C(c2ccc(Cl)cc2)C1` [Example 534, 4-(4-{[2-(4-chlorophenyl)-4,4-dimethylcyclohex-1-en-1-yl]methyl}piperazin-1-yl)-N-[(3-cyano-4-{[4-fluoro-1-(oxetan-3-yl)piperidin-4-yl]methoxy}phenyl)sulfonyl]-2-(1H-indazol-4-yloxy)benzamide] had a Ki in test [1] of 46 nM. Further, in test [3], the Ki was less than 0.01 nM and the “Binding selectivity ratio” value is on record as more than 4603.9.

For `CC1(C)CCC(CN2CCN(c3ccc(C(=O)NS(=O)(=O)c4ccc(OCC5CCC6(CC5)COC6)c([N+](=O)[O-])c4)c(Oc4cccc5[nH]ncc45)c3)CC2)=C(c2ccc(Cl)cc2)C1` [Example 535, 4-(4-{[2-(4-chlorophenyl)-4,4-dimethylcyclohex-1-en-1-yl]methyl}piperazin-1-yl)-2-(1H-indazol-4-yloxy)-N-{[3-nitro-4-(2-oxaspiro[3.5]non-7-ylmethoxy)phenyl]sulfonyl}benzamide], the Ki in test [1] is 2.5 nM; in test [3] it was less than 0.01 nM. For the same molecule, the “Binding selectivity ratio” value in test [3] is given as more than 250.5.

For the molecule `CC1(C)CCC(CN2CCN(c3ccc(C(=O)NS(=O)(=O)c4cnc(OCC5CCc6nccn6C5)c(Cl)c4)c(Oc4cccc5[nH]ncc45)c3)CC2)=C(c2ccc(Cl)cc2)C1` (stereo not shown) [Example 536, 4-(4-{[2-(4-chlorophenyl)-4,4-dimethylcyclohex-1-en-1-yl]methyl}piperazin-1-yl)-N-{[5-chloro-6-(5,6,7,8-tetrahydroimidazo[1,2-a]pyridin-6-ylmethoxy)pyridin-3-yl]sulfonyl}-2-(1H-indazol-4-yloxy)benzamide], the Ki was determined as 22.2 nM in test [1] and 0.025 nM in test [3]. The “Binding selectivity ratio” value in test [3] is 886.1.

Values taken from patent US9073855B2, “BCL-2 selective apoptosis-inducing agents for the treatment of cancer and immune diseases” (AbbVie Inc., priority 2008, dated 2015).
